Values of other authors in patent US8796326B1, “Fire ant killer (F.A.K.)/ insecticide” (priority 2008, dated 2014).

Test system: bacterial contamination on the hands and on treated products

Oc1cc(Cl)ccc1Oc1ccc(Cl)cc1Cl [Triclosan, 5-chloro-2-(2,4-dichlorophenoxy)phenol]
reducing and controlling bacterial contamination: effective
